tested on: Raji (Burkitt's) lymphoma cells; test: MTT assay for 4-day viability of Raji (Burkitt's) lymphoma cells; format: cell-based; settings: Homo sapiens, 96 h, Raji cells (highly express MCT1), read-out: approximate potency (EC50)
Excerpt: Specific Examples 1-52 of compounds of the invention, with estimated EC50 values determined using an MTT assay for 4-day viability of Raji (Burkitt's) lymphoma cells, a cell line known to highly express MCT1 and to be sensitive to small molecule MCT inhibitors,^4 are shown in Table 2. Assay protocols follow those described in the literature.^4 Other assays that are not described here but that are standard in the field, such as an assay for competitive inhibition of transport of radiolabeled lactic acid, an MCT substrate, may also be useful in establishing mechanism of action of these compounds.

Point of comparison: `Cc1n[nH]c(C)c1Cc1sc2c(c1-c1ccnc(CO)c1)c(=O)n(C)c(=O)n2CC(C)C` [Example 10, 6-((3,5-dimethyl-1H-pyrazol-4-yl)methyl)-5-(2-(hydroxymethyl)pyridin-4-yl)-1-isobutyl-3-methylthieno[2,3-d]pyrimidine-2,4(1H,3H)-dione], EC50 90 nM. Against it:
- Cc1n[nH]c(C)c1Cc1sc2c(c1-c1cccc(CO)c1F)c(=O)n(C)c(=O)n2CC(C)C [Example 1, 6-((3,5-dimethyl-1H-pyrazol-4-yl)methyl)-5-(2-fluoro-3-(hydroxymethyl)phenyl)-1-isobutyl-3-methylthieno[2,3-d]pyrimidine-2,4(1H,3H)-dione] — lower, ≤ 20 nM
- Cc1cc(CO)c(F)c(-c2c(Cc3c(C)n[nH]c3C)sc3c2c(=O)n(C)c(=O)n3CC(C)C)c1 [Example 2, 6-((3,5-dimethyl-1H-pyrazol-4-yl)methyl)-5-(2-fluoro-3-(hydroxymethyl)-5-methylphenyl)-1-isobutyl-3-methylthieno[2,3-d]pyrimidine-2,4(1H,3H)-dione] — within 1.5-fold, 100 nM
- Cc1n[nH]c(C)c1Cc1sc2c(c1-c1c(F)cc(F)c(CO)c1F)c(=O)n(C)c(=O)n2CC(C)C [Example 3, 6-((3,5-dimethyl-1H-pyrazol-4-yl)methyl)-1-isobutyl-3-methyl-5-(2,4,6-trifluoro-3-(hydroxymethyl)phenyl)thieno[2,3-d]pyrimidine-2,4(1H,3H)-dione] — higher, 1000 to 10000 nM
- Cc1n[nH]c(C)c1Cc1sc2c(c1-c1cnc(F)c(CO)c1)c(=O)n(C)c(=O)n2CC(C)C [Example 4, 6-((3,5-dimethyl-1H-pyrazol-4-yl)methyl)-5-(6-fluoro-5-(hydroxymethyl)pyridin-3-yl)-1-isobutyl-3-methylthieno[2,3-d]pyrimidine-2,4(1H,3H)-dione] — 2.2-fold higher, 200 nM
- Cc1n[nH]c(C)c1Cc1sc2c(c1-c1cc(F)c(F)c(CO)c1)c(=O)n(C)c(=O)n2CC(C)C [Example 5, 5-(3,4-difluoro-5-(hydroxymethyl)phenyl)-6-((3,5-dimethyl-1H-pyrazol-4-yl)methyl)-1-isobutyl-3-methylthieno[2,3-d]pyrimidine-2,4(1H,3H)-dione] — 1.8-fold higher, 160 nM
- Cc1n[nH]c(C)c1Cc1sc2c(c1-c1cc(CO)c(F)cc1F)c(=O)n(C)c(=O)n2CC(C)C [Example 6, 5-(2,4-difluoro-5-(hydroxymethyl)phenyl)-6-((3,5-dimethyl-1H-pyrazol-4-yl)methyl)-1-isobutyl-3-methylthieno[2,3-d]pyrimidine-2,4(1H,3H)-dione] — lower, ≤ 20 nM
- Cc1n[nH]c(C)c1Cc1sc2c(c1-c1ccc(F)c(CO)c1F)c(=O)n(C)c(=O)n2CC(C)C [Example 7, 5-(2,4-difluoro-3-(hydroxymethyl)phenyl)-6-((3,5-dimethyl-1H-pyrazol-4-yl)methyl)-1-isobutyl-3-methylthieno[2,3-d]pyrimidine-2,4(1H,3H)-dione] — lower, ≤ 20 nM
- Cc1n[nH]c(C)c1Cc1sc2c(c1-c1cncc(C(O)C(F)(F)F)c1)c(=O)n(C)c(=O)n2CC(C)C (centres unmarked) [Example 8, 6-((3,5-dimethyl-1H-pyrazol-4-yl)methyl)-1-isobutyl-3-methyl-5-(5-(2,2,2-trifluoro-1-hydroxyethyl)pyridin-3-yl)thieno[2,3-d]pyrimidine-2,4(1H,3H)-dione] — 2.6-fold lower, 34 nM
- Cc1n[nH]c(C)c1Cc1sc2c(c1-c1cc(F)cc(CO)c1)c(=O)n(C)c(=O)n2CC(C)C [Example 11, 6-((3,5-dimethyl-1H-pyrazol-4-yl)methyl)-5-(3-fluoro-5-(hydroxymethyl)phenyl)-1-isobutyl-3-methylthieno[2,3-d]pyrimidine-2,4(1H,3H)-dione] — 3.6-fold lower, 25 nM
- Cc1n[nH]c(C)c1Cc1sc2c(c1-c1cncc(CO)c1)c(=O)n(C)c(=O)n2CC(C)C [Example 12, 6-((3,5-dimethyl-1H-pyrazol-4-yl)methyl)-5-(5-(hydroxymethyl)pyridin-3-yl)-1-isobutyl-3-methylthieno[2,3-d]pyrimidine-2,4(1H,3H)-dione] — within 1.5-fold, 75 nM
